{"source": "patent US20240271213A1", "about": "“METHODS AND COMPOSITIONS COMPRISING FUNCTIONAL GENOMICS OF HIBERNATING MAMMALS” (Fauna Bio Incorporated, priority 2021, published 2024)", "key": {"AC16 cells [1]": {"test_system": "AC16 cells", "test": "Reactive oxygen species (ROS) production in AC16 cells", "type": "cell-based, human", "settings": "AC16 cells following incubation with compound"}, "AC16 cells [2]": {"test_system": "AC16 cells", "test": "Ischemia-reperfusion assay in AC16 cells, cell damage (LDH activity)", "type": "cell-based, human", "settings": "16 hours ischemia, 4 hours reperfusion, compound added prior to ischemia", "method": "FIG. 18B is a graph showing a decrease in cell damage response (LDH activity) of AC16 cells following 16 hrs ischemia and 4 hrs reperfusion and incubated with different concentrations of Triptolide.\n(§1) For ischemia-reperfusion assays, de-oxygenated serum free medium was prepared by adding 1% penicillin-streptomycin into glucose-free DMEM; the medium was contacted for 5 mins with 5% CO2 and 95% N2; and the medium was then warmed in a 37° C. bath. Cells were then washed with warm PBS to completely remove normal culture medium. PBS was aspirated and deoxygenated serum free medium was added into plates (100 μl was added for each well of 96-well plate). To mimic myocardial ischemia, cells in the experiment plate were subjected to ischemia by culturing them in glucose and serum free-medium and hypoxic conditions (5% CO2 and 95% N2). Plates were placed in a hypoxia chamber and air-tight lock; the chamber was filled with 5% CO2 and 95% N2 until oxygen level is 0%, and then the chamber was placed in the incubator for a duration of ischemia time. The duration of ischemia was 21 hours for H9C2 cells; 29 hours for differentiated SH-SY5Y cells; 16 hours for AC16 cells; and 16 hours for native SH-SY5Y cells. […] Cell viability was determined by MTT assay The control cells were considered to be 100% viable; changes in viability in the experiment plates were measured relative to the control. […]"}, "AC16 cells [3]": {"test_system": "AC16 cells", "test": "Ischemia-reperfusion assay in AC16 cells, cell viability", "type": "cell-based, human", "settings": "16 hours ischemia, 4 hours reperfusion, compound added prior to ischemia", "method": "FIG. 18A is a graph showing in vitro cell viability of AC16 cells following 16 hrs ischemia and 4 hrs reperfusion and incubated with different concentrations of a compound identified for neuroprotection, Triptolide.\nas §1, with “time.” for “time. The duration of ischemia was 21 hours for H9C2 cells; 29 hours for differentiated SH-SY5Y cells; 16 hours for AC16 cells; and 16 hours for native SH-SY5Y cells.”"}, "H9C2 cells": {"test_system": "H9C2 cells", "test": "Ischemia-reperfusion assay in H9C2 cells, viability by MTT", "type": "cell-based, rat", "settings": "melatonin added at start of ischemia, control wells ~75% viable, normoxic control = 100%", "method": "FIG. 17 is a graph illustrating results of an in vitro validation assay for ischemia-reperfusion injury in H9C2 cells. H9C2 cells were exposed to ischemia for […] and reperfusion for 4 hrs were contacted with differing concentrations of melatonin at the start of ischemia. Viability was measured using the MTT assay. Data are expressed as the mean +/− standard deviation in experiments performed in triplicate. * p<0.05 and ** […] compared to vehicle control.\nas §1, with “N2).” for “N2). Plates were placed in a hypoxia chamber and air-tight lock; the chamber was filled with 5% CO2 and 95% N2 until oxygen level is 0%, and then the chamber was placed in the incubator for a duration of ischemia time. The duration of ischemia was 21 hours for H9C2 cells; 29 hours for differentiated SH-SY5Y cells; 16 hours for AC16 cells; and 16 hours for native SH-SY5Y cells.”"}, "SH-SY5Y cells": {"test_system": "SH-SY5Y cells", "test": "Aβ1-42 induced toxicity in SH-SY5Y cells, viability by MTT", "type": "cell-based, human", "settings": "Aβ1-42 peptide added, vs vehicle control", "from_the_text": "Alzheimer's disease progression features the accumulation of two protein aggregates: β-amyloid (Aβ) and tau; these play crucial roles in neuronal loss or dysfunction in Alzheimer's disease. To mimic pathogenesis of Alzheimer's disease, we used in vitro cell models that focus on Aβ-induced toxicity and tau hyperphosphorylation. SH-SY5Y human neuroblastoma cells (American Type Culture Collection; ATCC) were purchased and grown in appropriate culture medium. First, OE/KD and WT SH-SY5Y cells were equally seeded in wells of 96-well plates. Human SH-SY5Y neuroblastoma cells were successfully differentiated into mature neurons by incubating cells in retinoic acid and N2 supplement for 9 days (FIG. 16). These can be distinguished from the original SH-SY5Y cells, which are prone to grow in clusters and extend short neurites at edges of the clusters. […] Aβ-induced toxicity was examined by adding Aβ1-42 peptide to both WT and OE/KD cells. Aβ1-42 induced cell death in WT cells. […] To validate potential neuroprotective compounds identified by the integrated gene networks described above, in vitro assays were conducted with SH-SY5Y cells. Aβ-induced toxicity was examined by adding Aβ1-42 peptide to cells treated with vehicle control or test compounds (FIG. 19). […] Tau hyperphosphorylation was also examined, by exposing the SH-SY5Y cells to hypothermic conditions (30° C.)."}}}
{"smiles": "CC(C)[C@]12O[C@H]1[C@@H]1O[C@]13[C@]1(O[C@H]1C[C@H]1C4=C(CC[C@@]13C)C(=O)OC4)[C@@H]2O", "note": "[Triptolide]", "values": [{"measurement": "production of reactive oxygen species (ROS)", "setting": "AC16 cells [1]", "result": "decrease production of reactive oxygen species (ROS)"}, {"measurement": "cell damage (LDH activity) after ischemia-reperfusion", "setting": "AC16 cells [2]", "result": "reduced cell damage"}, {"measurement": "cell viability after ischemia-reperfusion", "setting": "AC16 cells [3]", "result": "increased cell viability"}]}
{"smiles": "COc1ccc2[nH]cc(CCNC(C)=O)c2c1", "note": "[melatonin]", "values": [{"measurement": "viable cells after ischemia-reperfusion (MTT)", "setting": "H9C2 cells", "result": "~90", "unit": "%"}]}
{"smiles": "CC12CC3CC(C)(C1)CC(N)(C3)C2", "note": "[Memantine]", "values": [{"measurement": "cell viability under Aβ1-42 toxicity (MTT)", "setting": "SH-SY5Y cells", "result": "increase in cell viability"}]}
